According to paper doi:10.1101/2023.07.01.547317v1 (biorxiv, 2023):

Biological target: MoIcl1 (Pyricularia oryzae, UniProt P0CT06)
Assay: biochemical
Format: binding

MoIcl1, sequence (P0CT06 whole entry, looked up): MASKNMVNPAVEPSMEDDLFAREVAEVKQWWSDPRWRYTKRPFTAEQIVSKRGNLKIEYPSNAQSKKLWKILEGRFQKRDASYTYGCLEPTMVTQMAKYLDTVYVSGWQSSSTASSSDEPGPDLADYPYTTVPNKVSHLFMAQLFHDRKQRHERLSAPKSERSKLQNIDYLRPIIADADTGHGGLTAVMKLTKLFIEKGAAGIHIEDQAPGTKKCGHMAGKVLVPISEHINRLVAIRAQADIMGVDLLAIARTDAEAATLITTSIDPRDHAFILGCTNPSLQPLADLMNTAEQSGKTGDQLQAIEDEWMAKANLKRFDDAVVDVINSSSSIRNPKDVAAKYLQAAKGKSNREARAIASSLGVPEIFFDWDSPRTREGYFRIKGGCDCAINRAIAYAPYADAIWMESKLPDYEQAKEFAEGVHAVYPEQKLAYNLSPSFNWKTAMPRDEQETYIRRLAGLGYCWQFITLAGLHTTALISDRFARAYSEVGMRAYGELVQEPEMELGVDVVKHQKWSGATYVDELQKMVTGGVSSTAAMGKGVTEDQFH

## COc1ccc2[nH]cc(CCNC(C)=O)c2c1 [melatonin, N-acetyl-5-methoxytryptamine]
  Kd: 287 µM
